Here are results for 17 compounds from the SangsterLogP compilation.

This data set in a line: method code SF-AS, from Smul'skii, S.; Bogatskii, A.; Andronati, S.; Vikhlyaev, Yu.; Zhilina, Z. (1977). Lipophilic nature of quinazolin-2-ones and 1,2-dihydro-3H-1,4-benzodiazepin-2-ones. Otdel. Khim. Nauk., 235(2)369-371. The settings on record: pH 7.4.
`Cc1ccc2c(c1)=C(c1ccccc1)N(O)CC(=O)N=2` gave a logD of 1.13.
In turn, `O=c1nc(-c2ccccc2)c2cc(Br)ccc2[nH]1` returned a logD of 2.71.
Turning to `Cc1ccc2[nH]c(=O)nc(-c3ccccc3)c2c1`, the logD stood at 2.32.
As for `CCCC1N=C(c2ccccc2)c2cc(Cl)ccc2NC1=O` (configuration not stated), the logD worked out at 4.14.
In turn, `CC(=O)OC1N=C(c2ccccc2)c2cc(Cl)ccc2NC1=O` (configuration not stated) gave a logD of 2.6.
`O=c1nc(-c2ccccc2)c2cc(Cl)ccc2[nH]1`: the logD is 2.53. This logD and that of the compound before are within 0.2 log units of each other.
`O=C1CN=C(c2ccccc2Cl)c2cc(Br)ccc2N1` registered a logD of 3.3.
As for `O=C1Nc2ccc(Br)cc2C(c2ccccc2Cl)=NC1O` (configuration not stated), the logD worked out at 2.54.
Regarding `O=C1CN(O)C(c2ccccc2)=c2cc(Br)ccc2=N1`, the logD was 1.53.
`CC(C)C1N=C(c2ccccc2)c2cc(Cl)ccc2NC1=O` (configuration not stated) returned a logD of 4.
With `O=C1CN=C(c2ccccc2)c2cc(Br)ccc2N1`, the logD is 3.11.
Take `CCC1N=C(c2ccccc2)c2cc(Br)ccc2NC1=O` (configuration not stated): the logD was found to be 3.79.
In turn, `O=c1nc(-c2ccccc2)c2ccccc2[nH]1` gave a logD of 1.91.
Compound `CC(C)C1N=C(c2ccccc2)c2cc(Br)ccc2NC1=O` (configuration not stated) returned a logD of 4.18.
To `CC(=O)OC1N=C(c2ccccc2)c2cc(Br)ccc2NC1=O` (configuration not stated) belongs 2.76.
For the compound `CC1N=C(c2ccccc2)c2cc(Cl)ccc2N(C)C1=O` (configuration not stated), the logD came to 3.68.
To `CC1N=C(c2ccccc2)c2cc(Cl)ccc2NC1=O` (configuration not stated) belongs 3.25.

Usually logD stands for lipophilicity at a set pH, counting ionised and neutral species. Read a high logD as a more lipophilic compound.
